{"source": "ChEMBL document CHEMBL1127439", "about": "“Structure-activity relationship studies of central nervous system agents. 13. 4-[3-(Benzotriazol-1-yl)propyl]-1-(2-methoxyphenyl)piperazine, a new putative 5-HT1A receptor antagonist, and its analogs” (J Med Chem, 1994)", "key": {"Rattus norvegicus [1]": {"test_system": "Rattus norvegicus", "test": "Tested for the effect on 8-OH-DPAT-induced lower lip retraction (LLR) in rat at dosage of 2 mg/kg", "assay_type": "functional"}, "Rattus norvegicus [2]": {"test_system": "Rattus norvegicus", "test": "Tested for the effect on 8-OH-DPAT-induced behavior in reserpine pretreated rat against flat body posture at dosage of 8 mg/kg", "assay_type": "functional"}, "Rattus norvegicus [3]": {"test_system": "Rattus norvegicus", "test": "Tested for the effect on 8-OH-DPAT-induced behavior in reserpine pretreated rat against flat body posture at dosage of 4 mg/kg", "assay_type": "functional"}, "Rattus norvegicus [4]": {"species": "Rattus norvegicus", "test": "Selectivity is the ratio between Ki values of 5-HT2 and 5-HT1A"}, "Mus musculus [5]": {"test_system": "Mus musculus", "test": "Effect on 8-OH-DPAT-induced hypothermia in mice (5 mg/kg) at intraperitoneal dosage of 4 mg/kg of compound after 60 mins. Values expressed as +/- SEM", "assay_type": "functional"}, "[6]": {"target": "Serotonin 2 (5-HT2) receptor (Rattus norvegicus, UniProt P30994+P08909+P14842)", "test": "Tested in vitro for receptor binding affinity against 5-hydroxytryptamine 2 receptor using radioligand [3H]ketanserin", "assay_type": "protein assay"}, "Rattus norvegicus [7]": {"test_system": "Rattus norvegicus", "test": "Tested for the induction of lower lip retraction (LLR) by the investigated compounds in rat at dosage of 16 mg/kg", "assay_type": "functional"}, "Mus musculus [8]": {"test_system": "Mus musculus", "test": "Effect on 8-OH-DPAT-induced hypothermia in mice (5 mg/kg) at intraperitoneal dosage of 8 mg/kg of compound after 15 mins. Values expressed as +/- SEM", "assay_type": "functional"}, "Mus musculus [9]": {"test_system": "Mus musculus", "test": "Effect on 8-OH-DPAT-induced hypothermia in mice (5 mg/kg) at intraperitoneal dosage of 4 mg/kg of compound after 30 mins. Values expressed as +/- SEM", "assay_type": "functional"}, "Mus musculus [10]": {"test_system": "Mus musculus", "test": "Effect on 8-OH-DPAT-induced hypothermia in mice (5 mg/kg) at intraperitoneal dosage of 4 mg/kg of compound after 15 mins. Values expressed as +/- SEM", "assay_type": "functional"}, "Mus musculus [11]": {"test_system": "Mus musculus", "test": "Effect on 8-OH-DPAT-induced hypothermia in mice (5 mg/kg) at intraperitoneal dosage of 8 mg/kg of compound after 30 mins. Values expressed as +/- SEM", "assay_type": "functional"}, "Rattus norvegicus [12]": {"test_system": "Rattus norvegicus", "test": "Tested for the effect on 8-OH-DPAT-induced behavior in reserpine pretreated rat against forepaw treading at dosage of 8 mg/kg", "assay_type": "functional"}, "Mus musculus [13]": {"test_system": "Mus musculus", "test": "Effect on 8-OH-DPAT-induced hypothermia in mice (5 mg/kg) at intraperitoneal dosage of 16 mg/kg of compound after 45 mins", "assay_type": "functional"}, "Mus musculus [14]": {"test_system": "Mus musculus", "test": "Effect on 8-OH-DPAT-induced hypothermia in mice (5 mg/kg) at intraperitoneal dosage of 8 mg/kg of compound after 60 mins", "assay_type": "functional"}, "Mus musculus [15]": {"test_system": "Mus musculus", "test": "Effect on 8-OH-DPAT-induced hypothermia in mice (5 mg/kg) at intraperitoneal dosage of 4 mg/kg of compound after 45 mins. Values expressed as +/- SEM", "assay_type": "functional"}, "Rattus norvegicus [16]": {"test_system": "Rattus norvegicus", "test": "Tested for the induction of lower lip retraction (LLR) by the investigated compounds in rat at dosage of 4 mg/kg", "assay_type": "functional"}, "Rattus norvegicus [17]": {"test_system": "Rattus norvegicus", "test": "Tested for the effect on 8-OH-DPAT-induced lower lip retraction (LLR) in rat at dosage of 8 mg/kg", "assay_type": "functional"}, "Rattus norvegicus [18]": {"test_system": "Rattus norvegicus", "test": "Tested for the effect on 8-OH-DPAT-induced behavior in reserpine pretreated rat against forepaw treading at dosage of 16 mg/kg", "assay_type": "functional"}, "Rattus norvegicus [19]": {"test_system": "Rattus norvegicus", "test": "Tested for the induction of lower lip retraction (LLR) by the investigated compounds in rat at dosage of 8 mg/kg", "assay_type": "functional"}, "Rattus norvegicus [20]": {"test_system": "Rattus norvegicus", "test": "Tested for the effect on 8-OH-DPAT-induced lower lip retraction (LLR) in rat at dosage of 16 mg/kg", "assay_type": "functional"}, "Mus musculus [21]": {"test_system": "Mus musculus", "test": "Effect on 8-OH-DPAT-induced hypothermia in mice (5 mg/kg) at intraperitoneal dosage of 8 mg/kg of compound after 45 mins. Values expressed as +/- SEM", "assay_type": "functional"}, "Mus musculus [22]": {"test_system": "Mus musculus", "test": "Effect on 8-OH-DPAT-induced hypothermia in mice (5 mg/kg) at intraperitoneal dosage of 16 mg/kg of compound after 60 mins", "assay_type": "functional"}, "[23]": {"target": "T1, 5-hydroxytryptamine receptor 1A (Rattus norvegicus, UniProt P19327)", "T1 sequence (P19327 whole entry)": "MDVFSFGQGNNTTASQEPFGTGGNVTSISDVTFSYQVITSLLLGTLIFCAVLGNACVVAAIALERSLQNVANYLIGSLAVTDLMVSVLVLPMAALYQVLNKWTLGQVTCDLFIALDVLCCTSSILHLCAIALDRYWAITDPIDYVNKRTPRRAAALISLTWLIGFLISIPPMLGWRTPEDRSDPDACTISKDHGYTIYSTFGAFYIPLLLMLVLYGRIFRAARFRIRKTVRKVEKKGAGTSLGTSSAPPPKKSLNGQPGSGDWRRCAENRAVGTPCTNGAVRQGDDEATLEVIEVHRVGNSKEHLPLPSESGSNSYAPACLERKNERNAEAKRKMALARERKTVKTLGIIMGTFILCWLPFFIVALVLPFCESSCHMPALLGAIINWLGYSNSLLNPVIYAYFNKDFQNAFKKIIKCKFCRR", "test": "Tested in vitro for receptor binding affinity against 5-hydroxytryptamine 1A receptor using radioligand [3H]8-OH-DPAT"}, "Rattus norvegicus [24]": {"test_system": "Rattus norvegicus", "test": "Tested for the effect on 8-OH-DPAT-induced lower lip retraction (LLR) in rat at dosage of 4 mg/kg", "assay_type": "functional"}, "Mus musculus [25]": {"test_system": "Mus musculus", "test": "Effect on 8-OH-DPAT-induced hypothermia in mice (5 mg/kg) at intraperitoneal dosage of 16 mg/kg of compound after 30 mins", "assay_type": "functional"}, "Mus musculus [26]": {"test_system": "Mus musculus", "test": "Effect on 8-OH-DPAT-induced hypothermia in mice (5 mg/kg) at intraperitoneal dosage of 16 mg/kg of compound after 15 mins", "assay_type": "functional"}, "Rattus norvegicus [27]": {"test_system": "Rattus norvegicus", "test": "Tested for the effect on 8-OH-DPAT-induced behavior in reserpine pretreated rat against flat body posture at dosage of 16 mg/kg", "assay_type": "functional"}, "Rattus norvegicus [28]": {"test_system": "Rattus norvegicus", "test": "Tested for the effect on 8-OH-DPAT-induced behavior in reserpine pretreated rat against forepaw treading at dosage of 4 mg/kg", "assay_type": "functional"}, "Rattus norvegicus [29]": {"test_system": "Rattus norvegicus", "test": "Tested for the induction of lower lip retraction (LLR) by the investigated compounds in rat at dosage of 2 mg/kg", "assay_type": "functional"}}}
{"smiles": "COc1ccccc1N1CCN(CCCCn2nnc3ccccc32)CC1", "values": [{"measurement": "LLR score", "setting": "Rattus norvegicus [1]", "result": 2.2}, {"measurement": "Behavioral score", "setting": "Rattus norvegicus [2]", "result": 8.2}, {"measurement": "Behavioral score", "setting": "Rattus norvegicus [3]", "result": 11}, {"measurement": "Selectivity", "setting": "Rattus norvegicus [4]", "result": 9.4}, {"measurement": "Delta t", "setting": "Mus musculus [5]", "result": 3.2, "unit": "°C"}, {"measurement": "Ki", "setting": "[6]", "result": 0.16, "unit": "µM"}, {"measurement": "LLR score", "setting": "Rattus norvegicus [7]", "result": 0.7}, {"measurement": "Delta t", "setting": "Mus musculus [8]", "result": 3.9, "unit": "°C"}, {"measurement": "Delta t", "setting": "Mus musculus [9]", "result": 4.2, "unit": "°C"}, {"measurement": "Delta t", "setting": "Mus musculus [10]", "result": 3.9, "unit": "°C"}, {"measurement": "Delta t", "setting": "Mus musculus [11]", "result": 4.1, "unit": "°C"}, {"measurement": "Behavioral score", "setting": "Rattus norvegicus [12]", "result": 3.6}, {"measurement": "Delta t", "setting": "Mus musculus [13]", "result": 5.6, "unit": "°C"}, {"measurement": "Delta t", "setting": "Mus musculus [14]", "result": 2.7, "unit": "°C"}, {"measurement": "Delta t", "setting": "Mus musculus [15]", "result": 3.8, "unit": "°C"}, {"measurement": "LLR score", "setting": "Rattus norvegicus [16]", "result": 0.3}, {"measurement": "LLR score", "setting": "Rattus norvegicus [17]", "result": 1.9}, {"measurement": "Behavioral score", "setting": "Rattus norvegicus [18]", "result": 6.1}, {"measurement": "LLR score", "setting": "Rattus norvegicus [19]", "result": 0.1}, {"measurement": "LLR score", "setting": "Rattus norvegicus [20]", "result": 2.4}, {"measurement": "Delta t", "setting": "Mus musculus [21]", "result": 3.5, "unit": "°C"}, {"measurement": "Delta t", "setting": "Mus musculus [22]", "result": 5.2, "unit": "°C"}, {"measurement": "Ki", "setting": "[23]", "result": 0.017, "unit": "µM"}, {"measurement": "LLR score", "setting": "Rattus norvegicus [24]", "result": 2.1}, {"measurement": "Delta t", "setting": "Mus musculus [25]", "result": 5.6, "unit": "°C"}, {"measurement": "Delta t", "setting": "Mus musculus [26]", "result": 5.3, "unit": "°C"}, {"measurement": "Behavioral score", "setting": "Rattus norvegicus [27]", "result": 12.7}, {"measurement": "Behavioral score", "setting": "Rattus norvegicus [28]", "result": 10.3}, {"measurement": "LLR score", "setting": "Rattus norvegicus [29]", "result": 0.2}]}
{"smiles": "COc1ccccc1N1CCN(CCn2nnc3ccccc32)CC1", "values": [{"measurement": "Selectivity", "setting": "Rattus norvegicus [4]", "result": 39}, {"measurement": "Ki", "setting": "[6]", "result": 1.62, "unit": "µM"}, {"measurement": "Ki", "setting": "[23]", "result": 0.042, "unit": "µM"}]}
{"smiles": "CCCN1CCN(c2ccccc2OC)CC1", "values": [{"measurement": "Selectivity", "setting": "Rattus norvegicus [4]", "result": 13}, {"measurement": "Ki", "setting": "[6]", "result": 3.29, "unit": "µM"}]}
{"smiles": "CCN1CCN(c2ccccc2OC)CC1", "values": [{"measurement": "Selectivity", "setting": "Rattus norvegicus [4]", "result": 15}, {"measurement": "Ki", "setting": "[6]", "result": 3.12, "unit": "µM"}, {"measurement": "Ki", "setting": "[23]", "result": 0.203, "unit": "µM"}]}
